# Measurements: patent US10508104B2, “6-hydroxy-5-(phenyl/heteroarylsulfonyl)pyrimidin-4(1H)-one as APJ agonists” (Bristol-Myers Squibb Company, priority 2016, dated 2019)
# Biological target: human APJ receptor (Homo sapiens (Human), UniProt P35414)
# Assay: Intracellular cAMP accumulation assay (APJ hcAMP, HTRF)
# Type: cell-based
# Settings: human APJ, cAMP accumulation; read-out: Human APJ cAMP EC50 Potency range
# Method in brief: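 HEK293 cells stably expressing human APJ, 5,000 per well, incubated 30 min at rt with compound, […] and 2 μM forskolin. cAMP measured by HTRF against a cAMP standard curve as inhibition of forskolin-driven production. EC50 from variable-slope sigmoidal fit.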
# Chain of human APJ receptor (P35414 whole entry): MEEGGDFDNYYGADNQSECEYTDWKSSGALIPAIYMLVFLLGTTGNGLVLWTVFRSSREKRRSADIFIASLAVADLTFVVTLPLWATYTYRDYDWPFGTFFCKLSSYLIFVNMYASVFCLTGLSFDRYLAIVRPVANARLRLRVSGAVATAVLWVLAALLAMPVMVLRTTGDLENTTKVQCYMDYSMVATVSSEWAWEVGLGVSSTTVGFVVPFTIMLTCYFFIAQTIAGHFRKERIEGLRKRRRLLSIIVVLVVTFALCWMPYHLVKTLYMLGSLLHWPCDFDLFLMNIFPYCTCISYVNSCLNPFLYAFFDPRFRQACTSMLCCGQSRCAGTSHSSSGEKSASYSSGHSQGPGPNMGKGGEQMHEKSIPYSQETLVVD
row,EC50,SMILES
1,0.01 to 10 nM,"CCCCc1nc(=O)c(S(=O)(=O)c2ccc(-c3cncc(F)c3)cc2)c(O)n1[C@@H](CC)c1cccc(F)c1 [Example 214, 2-butyl-1-[(1S)-1-(3-fluorophenyl)propyl]-5-[4-(5-fluoropyridin-3-yl)benzenesulfonyl]-6-hydroxy-1,4-dihydropyrimidin-4-one]"
2,0.01 to 10 nM,"CCCCc1nc(=O)c(S(=O)(=O)c2ccc(-c3cccnc3C)cc2)c(O)n1[C@@H](CC)c1ccc2c(c1)OCO2 [Example 215, 1-[(1S)-1-(2H-1,3-benzodioxol-5-yl)propyl]-2-butyl-6-hydroxy-5-[4-(2-methylpyridin-3-yl)benzenesulfonyl]-1,4-dihydropyrimidin-4-one]"
3,0.01 to 10 nM,"CCCCc1nc(O)c(S(=O)(=O)c2ccc(Br)cc2)c(=O)n1[C@@H](CC)c1cccc(F)c1 [Example 216, 5-(4-bromobenzenesulfonyl)-2-butyl-3-[(1S)-1-(3-fluorophenyl)propyl]-6-hydroxy-3,4-dihydropyrimidin-4-one]"
4,0.01 to 10 nM,"CCCCc1nc(=O)c(S(=O)(=O)c2ccc(-c3ccnc(F)c3C)cc2)c(O)n1[C@@H](CC)c1cccc(F)c1 [Example 217, 2-butyl-5-[4-(2-fluoro-3-methylpyridin-4-yl)benzenesulfonyl]-1-[(1S)-1-(3-fluorophenyl)propyl]-6-hydroxy-1,4-dihydropyrimidin-4-one]"
5,0.01 to 10 nM,"CCCCc1nc(=O)c(S(=O)(=O)c2ccc(-c3cncc(F)c3)cc2)c(O)n1[C@@H](CC)c1ccc2c(c1)OCO2 [Example 218, 1-[(1S)-1-(2H-1,3-benzodioxol-5-yl)propyl]-2-butyl-5-[4-(5-fluoropyridin-3-yl)benzenesulfonyl]-6-hydroxy-1,4-dihydropyrimidin-4-one]"
6,0.01 to 10 nM,"CCCCc1nc(O)c(S(=O)(=O)c2ccc(Br)cc2)c(=O)n1[C@@H](CC)c1ccc2c(c1)OCO2 [Example 219, 3-[(1S)-1-(2H-1,3-benzodioxol-5-yl)propyl]-5-(4-bromobenzenesulfonyl)-2-butyl-6-hydroxy-3,4-dihydropyrimidin-4-one]"
7,0.01 to 10 nM,"CCCCc1nc(=O)c(S(=O)(=O)c2ccc(-c3ccc(F)nc3C)cc2)c(O)n1[C@@H](CC)c1ccc2c(c1)OCO2 [Example 220, 1-[(1S)-1-(2H-1,3-benzodioxol-5-yl)propyl]-2-butyl-5-[4-(6-fluoro-2-methylpyridin-3-yl)benzenesulfonyl]-6-hydroxy-1,4-dihydropyrimidin-4-one]"
8,0.01 to 10 nM,"CCCCc1nc(=O)c(S(=O)(=O)c2ccc(-c3cccnc3C)cc2)c(O)n1[C@H]1CCCc2ccccc21 [Example 221, 2-butyl-6-hydroxy-5-[4-(2-methylpyridin-3-yl)benzenesulfonyl]-1-[(1S)-1,2,3,4-tetrahydronaphthalen-1-yl]-1,4-dihydropyrimidin-4-one]"
9,0.01 to 10 nM,"CCCCc1nc(=O)c(S(=O)(=O)c2ccc(-c3cncc(F)c3)cc2)c(O)n1[C@H]1CCCc2ccccc21 [Example 222, 2-butyl-5-[4-(5-fluoropyridin-3-yl)benzenesulfonyl]-6-hydroxy-1-[(1S)-1,2,3,4-tetrahydronaphthalen-1-yl]-1,4 dihydropyrimidin-4-one]"
10,0.01 to 10 nM,"CCCCc1nc(O)c(S(=O)(=O)c2ccc(Br)cc2)c(=O)n1[C@@H](CC)c1cccc(C#N)c1 [Example 223, 3-[(1S)-1-[5-(4-bromobenzenesulfonyl)-2-butyl-4-hydroxy-6-oxo-1,6-dihydropyrimidin-1-yl]propyl]benzonitrile]"
11,0.01 to 10 nM,"CCCCc1nc(=O)c(S(=O)(=O)c2ccc(-c3ccncc3C)cc2)c(O)n1[C@H]1CCCc2ccccc21 [Example 224, 2-butyl-6-hydroxy-5-[4-(3-methylpyridin-4-yl)benzenesulfonyl]-1-[(1S)-1,2,3,4-tetrahydronaphthalen-1-yl]-1,4-dihydropyrimidin-4-one]"
12,0.01 to 10 nM,"CCCCc1nc(=O)c(S(=O)(=O)c2ccc(-c3cncc(F)c3)cc2)c(O)n1[C@@H](CC)c1cccc(C#N)c1 [Example 225, 3-[(1S)-1-{2-butyl-5-[4-(5-fluoropyridin-3-yl)benzenesulfonyl]-6-hydroxy-4-oxo-1,4-dihydropyrimidin-1-yl}propyl]benzonitrile]"
13,0.01 to 10 nM,"CCCCc1nc(=O)c(S(=O)(=O)c2ccc(-c3ccc(F)nc3C)cc2)c(O)n1[C@@H](CC)c1cccc(C#N)c1 [Example 226, 3-[(1S)-1-{2-butyl-5-[4-(6-fluoro-2-methylpyridin-3-yl)benzenesulfonyl]-6-hydroxy-4-oxo-1,4-dihydropyrimidin-1-yl}propyl]benzonitrile]"
14,0.01 to 10 nM,CCCCc1nc(=O)c(S(=O)(=O)c2ccc(-c3cccnc3C)cc2)c(O)n1[C@@H](C)c1ccc(OC)cc1 [Example 227]
15,0.01 to 10 nM,"CCCCc1nc(=O)c(S(=O)(=O)c2ccc(-c3ccncc3C)cc2)c(O)n1[C@@H](C)c1ccccc1OC [Example 228, 2-butyl-6-hydroxy-1-[(1S)-1-(2-methoxyphenyl)ethyl]-5-[4-(3-methylpyridin-4-yl)benzenesulfonyl]-1,4-dihydropyrimidin-4-one]"
16,0.01 to 10 nM,"CCCCc1nc(=O)c(S(=O)(=O)c2ccc(-c3ccncc3C)cc2)c(O)n1[C@@H](CC)c1cccc(C#N)c1 [Example 229, 3-[(1S)-1-{2-butyl-6-hydroxy-5-[4-(3-methylpyridin-4-yl)benzenesulfonyl]-4-oxo-1,4-dihydropyrimidin-1-yl}propyl]benzonitrile]"
17,0.01 to 10 nM,"CCCCc1nc(=O)c(S(=O)(=O)c2ccc(-c3ccnc(F)c3C)cc2)c(O)n1[C@@H](CC)c1cccc(C#N)c1 [Example 230, 3-[(1S)-1-{2-butyl-5-[4-(2-fluoro-3-methylpyridin-4-yl)benzenesulfonyl]-6-hydroxy-4-oxo-1,4-dihydropyrimidin-1-yl}propyl]benzonitrile]"

# Same assay, conditions: human APJ, intracellular cAMP accumulation; read-out: Human APJ cAMP EC50 Potency range
row,EC50,SMILES
1,0.01 to 10 nM,"CCCCc1nc(=O)c(S(=O)(=O)c2ccc(-c3ccc(F)nc3C)cc2)c(O)n1C(c1ccccc1)C1CC1 (centres unmarked) [Example 202, 2-butyl-1-[cyclopropyl(phenyl)methyl]-5-[4-(6-fluoro-2-methylpyridin-3-yl)benzenesulfonyl]-6-hydroxy-1,4-dihydropyrimidin-4-one]"
2,0.01 to 10 nM,"CCCCc1nc(=O)c(S(=O)(=O)c2ccc(-c3ccnc(F)c3C)cc2)c(O)n1C(C)c1cccnc1 (centres unmarked) [Example 203, 2-butyl-5-[4-(2-fluoro-3-methylpyridin-4-yl)benzenesulfonyl]-6-hydroxy-1-[1-(pyridin-3-yl)ethyl]-1,4-dihydropyrimidin-4-one]"
3,0.01 to 10 nM,"CCCCc1nc(=O)c(S(=O)(=O)c2ccc(-c3ccnc(F)c3C)cc2)c(O)n1C(c1ccccc1)C1CC1 (centres unmarked) [Example 204, 2-butyl-1-[cyclopropyl(phenyl)methyl]-5-[4-(2-fluoro-3-methylpyridin-4-yl)benzenesulfonyl]-6-hydroxy-1,4-dihydropyrimidin-4-one]"
4,0.01 to 10 nM,"CCCCc1nc(=O)c(S(=O)(=O)c2ccc(-c3ccncc3C)cc2)c(O)n1C(C)c1cccnc1 (centres unmarked) [Example 205, 2-butyl-6-hydroxy-5-[4-(3-methylpyridin-4-yl)benzenesulfonyl]-1-[1-(pyridin-3-yl)ethyl]-1,4-dihydropyrimidin-4-one]"
5,0.01 to 10 nM,"CCCCc1nc(=O)c(S(=O)(=O)c2ccc(-c3cccnc3C)cc2)c(O)n1C(c1ccccc1)C1CC1 (centres unmarked) [Example 206, 2-butyl-1-[cyclopropyl(phenyl)methyl]-6-hydroxy-5-[4-(2-methylpyridin-3-yl)benzenesulfonyl]-1,4-dihydropyrimidin-4-one]"
6,0.01 to 10 nM,"CC[C@@H](c1ccccc1)n1c(CCC(C)C)nc(=O)c(S(=O)(=O)c2ccc(-c3ccnc(F)c3C)cc2)c1O [Example 207, 5-[4-(2-fluoro-3-methylpyridin-4-yl)benzenesulfonyl]-6-hydroxy-2-(3-methylbutyl)-1-[(1S)-1-phenylpropyl]-1,4-dihydropyrimidin-4-one]"
7,0.01 to 10 nM,"CC[C@@H](c1ccccc1)n1c(CCC(C)C)nc(=O)c(S(=O)(=O)c2ccc(-c3ccc(F)nc3C)cc2)c1O [Example 208, 5-[4-(6-fluoro-2-methylpyridin-3-yl)benzenesulfonyl]-6-hydroxy-2-(3-methylbutyl)-1-[(1S)-1-phenylpropyl]-1,4-dihydropyrimidin-4-one]"
8,0.01 to 10 nM,"CC[C@@H](c1ccccc1)n1c(CCC(C)C)nc(=O)c(S(=O)(=O)c2ccc(-c3ccncc3C)cc2)c1O [Example 209, 6-hydroxy-2-(3-methylbutyl)-5-[4-(3-methylpyridin-4-yl)benzenesulfonyl]-1-[(1S)-1-phenylpropyl]-1,4-dihydropyrimidin-4-one]"
9,0.01 to 10 nM,"CCCCc1nc(=O)c(S(=O)(=O)c2ccc(-c3ccncc3C)cc2)c(O)n1[C@H](C)c1ccc(OC)cc1 [Example 210, 2-butyl-6-hydroxy-1-[(1R)-1-(4-methoxyphenyl)ethyl]-5-[4-(3-methylpyridin-4-yl)benzenesulfonyl]-1,4-dihydropyrimidin-4-one]"
10,0.01 to 10 nM,"CCCCc1nc(=O)c(S(=O)(=O)c2ccc(-c3ccnc(F)c3C)cc2)c(O)n1[C@@H](CC)c1ccc2c(c1)OCO2 [Example 211, 1-[(1S)-1-(2H-1,3-benzodioxol-5-yl)propyl]-2-butyl-5-[4-(2-fluoro-3-methylpyridin-4-yl)benzenesulfonyl]-6-hydroxy-1,4-dihydropyrimidin-4-one]"
11,0.01 to 10 nM,"CCCCc1nc(=O)c(S(=O)(=O)c2ccc(-c3ccncc3C)cc2)c(O)n1[C@@H](CC)c1cccc(F)c1 [Example 212, 2-butyl-1-[(1S)-1-(3-fluorophenyl)propyl]-6-hydroxy-5-[4-(3-methylpyridin-4-yl)benzenesulfonyl]-1,4-dihydropyrimidin-4-one]"
12,0.01 to 10 nM,"CCCCc1nc(=O)c(S(=O)(=O)c2ccc(-c3cccnc3C)cc2)c(O)n1[C@@H](CC)c1cccc(F)c1 [Example 213, 2-butyl-1-[(1S)-1-(3-fluorophenyl)propyl]-6-hydroxy-5-[4-(2-methylpyridin-3-yl)benzenesulfonyl]-1,4-dihydropyrimidin-4-one]"
